The source of these data is patent US20100210534A1, “USE OF A PEPTIDE AS A THERAPEUTIC AGENT” (priority 2007, published 2010).

No end group written: not given here.

For one experiment, the system named is HIV-1IIIB. The experiment is described as follows: HIV-1 antiviral assay in CEM-SS cells (MTS readout of virus-induced cell killing). It counts as cell-based.
Experiment [1] relates to hepatitis B virus (HBV) ayw strain. The experiment is described as follows: HBV assay in HepG2-2.2.15 cells (secreted HBV DNA by TaqMan PCR). In kind it is cell-based. The settings on record: 10 micrograms per ml, six days, HBV DNA in supernatant. On the technique in general: In qPCR the cycle at which signal appears reflects the starting amount.
The subject of a further experiment is HCMV strain AD169. The experiment is described as follows: HCMV plaque formation assay in MRC-5 cells. The settings on record: for inhibition of HCMV plaque formation as compared to the virus control: 10 micrograms per ml, 7-10 days.
In experiment [2] the test system is Primary Human endothelial cells (HUVEC). The experiment in a line: Endothelial cell migration assay. The following applies: 10 micrograms per ml, 22 hours, combination peptide 1: peptide 2 0.95 mole: 1.05 mole.
Protocol: Primary Human endothelial cells (HUVEC) were seeded in insert chambers with 3 micrometer pore size of multi-transwell plate for 6 hours at 37° C. in Endothelial Cell Basal Medium (EBM) supplemented with 0.1% bovine serum albumin. Thereafter, designated concentration of testing peptides—10 micrograms per ml—was added in duplicate wells. The endothelia were allowed to migrate for 22 hours at 37° C., then, migrated cells were fixed and stained with Hoechst 33342 dye. Images of 3 fields per insert were taken and the number of migrated cells per field were quantified using the ImageProPlus software. Data were analyzed for the average number of the migrated cells and standard deviation of six data points for each treatment condition. […] Statistic p values were computed using the Student's t-test.
The test system of experiment [3] is spleen cells of Ovalbumin-immunized Balb/c mice. The experiment in a line: Th1/Th2 cytokine profiling assay (Ovalbumin-restimulated spleen cells, CBA kit). The following applies: 10 micrograms per ml; Ovalbumin restimulation, 72 hours.
Description: The Balb/c mice (originated in 1923, it is a popular strain and is used in many different research disciplines. Also classified as an inbred from the production of 20 or more successive brother-sister matings, the Balb/c mouse is albino and small in size) were immunized on Days 1, 15, and 29 with Ovalbumin (Ovalbumin is the main protein found in egg white, commonly used to stimulate an immunological reaction in test animals) in PBS (5 micrograms/injection). On day 50, spleens of the mice were harvested (3 weeks after last boost with Ovalbumin). […] Thereafter, additional Ovalbumin was added to the cells at 10 micrograms/ml for in vitro restimulation of the cells. 72 hours later, cell supernatants were harvested and assayed using the Becton Dickinson Mouse Th1/Th2 Cytokine CBA Kit.
Another experiment concerns HUVEC. The experiment is described as follows: Endothelial tube formation assay. The following applies: 10 micrograms per ml, 20 hours, combination peptide 1: peptide 2 0.95 mole: 1.05 mole.

`Cc1cn([C@H]2C[C@H](N=[N+]=[N-])[C@@H](CO)O2)c(=O)[nH]c1=O` [AZT]: in the experiment with HIV-1IIIB, the “antiviral activity of positive control compounds (HIV-1)” value was “expected levels of antiviral activity”.

With `CC(C)(C)NC(=O)[C@@H]1CN(Cc2cccnc2)CCN1C[C@@H](O)C[C@@H](Cc1ccccc1)C(=O)N[C@H]1c2ccccc2C[C@H]1O` [indinavir], the “antiviral activity of positive control compounds (HIV-1)” value in the experiment on HIV-1IIIB is listed as “expected levels of antiviral activity”.

Consider “Ala-Ala-Val-Ala-Leu-Leu-Pro-Ala-Val-Leu-Leu-Ala-Leu-Leu-Ala-Pro-Val-Gln-Arg-Lys-Arg-Gln-Lys-Leu-Met-Pro-OH (AAVALLPAVLLALLAPVQRKRQKLMP-OH) [Peptide 1]”, for which, in experiment [1], the “inhibition of HBV replication as compared to the virus control infection” value turned out to be 40.7%. Moreover, in the experiment with HCMV strain AD169, the “inhibition of HCMV plaque formation as compared to the virus control” value is reported as “did not inhibit”. Moreover, the “inhibition of the migration of human endothelial cells” value in experiment [2] was “did not inhibit”. Moreover, in experiment [3], the “IFNγ spleen cells; TH1 response (% of control)” value was 63.7 % of control, the “IL-2 spleen cells (% of control)” value was 153.6 % of control, the “IL-4 spleen cells; TH2 response (% of control)” value was 118.2 % of control and the “IL-5 spleen cells; TH2 response (% of control)” value is recorded as 74.6 % of control. In addition, the “TNF-a spleen cells; TH1 response (% of control)” value in experiment [3] is 108.5 % of control. Besides, the “inhibition of the tube formation endothelial cells” value in the experiment on HUVEC is “did not inhibit”.

As for `Nc1nc(O)c2ncn(COC(CO)CO)c2n1` [Ganciclovir, reference compound], in the experiment with HCMV strain AD169 (positive control, HCMV AD169), the “antiviral activity of positive control compound (HCMV)” value is listed as “expected levels of antiviral activity”.

On to “Arg-Val-Tyr-Ile-His-Pro-Phe-OH (RVYIHPF-OH) [Peptide 2]”, for which the “inhibition of HBV replication as compared to the virus control infection” value in experiment [1] stood at 44.1%. The “inhibition of HCMV plaque formation as compared to the virus control” value in the experiment on HCMV strain AD169 is on record as “did not inhibit”. Also, the “inhibition of the migration of human endothelial cells” value in experiment [2] is listed as “did not inhibit”. In experiment [3], the “IFNγ spleen cells; TH1 response (% of control)” value is given as 126.8 % of control, the “IL-2 spleen cells (% of control)” value is listed as 119.1 % of control, the “IL-4 spleen cells; TH2 response (% of control)” value is given as 117.2 % of control and the “IL-5 spleen cells; TH2 response (% of control)” value was 69.6 % of control. Moreover, in experiment [3], the “TNF-a spleen cells; TH1 response (% of control)” value is on record as 106.3 % of control. In the experiment on HUVEC, the “inhibition of the tube formation endothelial cells” value turned out to be 3%.
